Source: patent US7671069B2, “Tricyclic, heteroaromatic compounds modulating CXCR4 and/ or CXCR7” (ChemoCentryx, Inc., priority 2006, dated 2010)

Target: T1, CXCR4 (Homo sapiens, UniProt P61073)
T1 construct: endogenous in cells; host or cells: CEM-Nkr, CCRF-CEM (ATCC #CCL-119), Jurkat (ATCC #TIB-152), Molt-4 (ATCC# CRL-1582); IL-2 stimulated lymphocytes from human blood
Test: Inhibition of SDF-1 ligand binding or chemotaxis assay for CXCR4
Conditions: first (or only) activity listed in CXCR4/CXCR7; chemotaxis assay or binding assays
Experimental: CEM-Nkr, CCRF-CEM (ATCC #CCL-119), Jurkat (ATCC #TIB-152), Molt-4 (ATCC# CRL-1 582), cell lines, all endogenously expressing CXCR4, were used in compound screening and subsequent assays. These cell lines were cultured as a suspension in RPMI-1640 medium supplemented with 2 mM L-glutamine, 1.5 g/L sodium bicarbonate, 4.5 g/L glucose, 10 mM HEPES, 1 mM sodium pyruvate, and 10% FBS. Cells were grown under 5% CO2/95% air, 100% humidity at 37° C. and subcultured twice weekly at 1:6 (cells were cultured at a density range of 1×10^5 to 2×10^6 cells/mL) and harvested at 1×10^6 cells/mL.
Il-2 stimulated lymphocytes were isolated from fresh human blood using density separation and centrifigation. Briefly, whole blood is incubated with equal parts 3% dextran and allowed to separate for 45 minutes. After separation, the top layer is then layered on top of 15 mls of Ficoll (15 mls of Ficoll for every 30 mls of blood suspension) and centrifuged for 30 minutes at 400×g with no brake. The pellet at the bottom of the tube is then isolated and resuspended into PharmLyse RBC Lysis Buffer (BD Biosciences, San Jose, Calif.) after which the sample is again centrifuged for 10 minutes at 400×g with brake. The remaining cell pellet is resuspended as appropriate and stimulated with PHA for 2 days, followed by culturing in the presence of human IL-2 cytokine.
Cells were centrifuged and resuspended in assay buffer (20 mM HEPES pH 7.1, 140 mM NaCl, 1 mM CaCl2, 5 mM MgCl2, and with 0.2% bovine serum albumin) to a concentration of 4×10^6 cells/mL for cell lines. Binding assays were set up as follows. 0.15 mL of cells (6×10^5 cells/well) was added to the assay plates containing the compounds, giving a final concentration of ˜2-10 μM each compound for screening (or part of a dose response for compound IC50 determinations). Then 0.1 mL of ^125I labeled SDF-1α (obtained from Perkin Elmer Life Sciences, Boston, Mass.) diluted in assay buffer to a final concentration of ˜[…], yielding ˜30,000 cpm per well, was added, the plates sealed and incubated for approximately 3 hours at 4° C. on a shaker platform. Reactions were aspirated onto GF/B glass filters pre-soaked in 0.3% polyethyleneimine (PEI) solution, on a vacuum cell harvester (Packard Instruments; Meriden, Conn.). Scintillation fluid (40 μl; Microscint 20, Packard Instruments) was added to each well, the plates were sealed and radioactivity measured in a Topcount scintillation counter (Packard Instruments). Control wells containing either diluent only (for total counts) or excess SDF1a (1 μg/mL, for non-specific binding) were used to calculate the percent of total inhibition for compound. The computer program Prism from Graph Pad, Inc. (San Diego, Calif.) was used to calculate IC50 values. IC50 values are those concentrations required to reduce the binding of radiolabeled SDF-1α to the receptor by 50%. (For further descriptions of ligand binding and other functional assays, see Dairaghi, et al., J. Biol. Chem. 274:21569-21574 (1999), Penfold, et al., Proc. Natl. Acad. Sci. USA. 96:9839-9844 (1999), and Dairaghi, et al,. J. Biol. Chem. 272:28206-28209 (1997)).
Chemotaxis assays were performed using 5 μm pore polycarbonate, polyvinylpyrrolidone-coated filters in 96-well chemotaxis chambers (Neuroprobe; Gaithersburg, Md.) using chemotaxis buffer (Hank's balanced salt solution (HBSS) and 1% FBS). CXCR4 ligand (i.e., SDF1a, R&D Systems; Minneapolis, Minn.) are use to evaluate compound mediated inhibition of CXCR4 mediated migration. Other chemokines (i.e., TECK; R&D Systems; Minneapolis, Minn.) are used as specificity controls. The lower chamber was loaded with 29 μl of chemokine (i.e., 0.1 nM SDF1a); the top chamber contained 50,000 Jurkat cells or IL-2 lymphocytes in 20 μl. […]

T1 sequence (P61073 whole entry): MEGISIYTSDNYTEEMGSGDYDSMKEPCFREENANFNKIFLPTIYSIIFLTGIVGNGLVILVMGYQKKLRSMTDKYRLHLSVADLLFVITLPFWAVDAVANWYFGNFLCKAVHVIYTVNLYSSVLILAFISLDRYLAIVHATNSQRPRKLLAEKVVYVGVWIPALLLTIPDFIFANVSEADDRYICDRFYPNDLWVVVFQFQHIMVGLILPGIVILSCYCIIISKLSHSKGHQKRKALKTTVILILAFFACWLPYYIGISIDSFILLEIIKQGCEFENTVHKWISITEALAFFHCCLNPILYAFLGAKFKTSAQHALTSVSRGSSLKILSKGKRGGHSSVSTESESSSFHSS

Structure (SMILES) | IC50
Cc1ccc2c(c1)-c1nn(CC(=O)NCCN(C)C3CCCCC3)cc1CO2 [Compound 3] | 1 to 10 µM
CN(CCNC(=O)Cn1ncc2c1-c1cc(Cl)ccc1OC2)C1CCCCC1 [Compound 4] | > 10 µM
Cc1ccc2c(c1)-c1c(cnn1CC(=O)N1CCN(C3CCCCCC3)CC1)CO2 [Compound 5] | 1 to 10 µM
CN(CCNC(=O)Cn1ncc2c1-c1ccccc1CC2)C1CCCCC1 [Compound 6] | 1 to 10 µM
COc1ccc2c(c1)-c1c(cnn1CC(=O)NCCN(C1CCCCC1)C1CCCCC1)CO2 [Compound 7] | 1 to 10 µM
CN(CCNC(=O)Cn1ncc2[nH]c(=O)c3ccccc3c21)C1CCCCC1 [Compound 10] | > 10 µM
COc1nc2cnn(CC(=O)NCCN(C)C3CCCCC3)c2c2ccccc12 [Compound 11] | 1 to 10 µM
CN(CCCNC(=O)Cn1ncc2cc3ccccc3nc21)C1CCCCC1 [Compound 14] | 1 to 10 µM
CN(CCNC(=O)Cn1ncc2c1-c1ccc(C#N)cc1OC2)C1CCCCC1 [Compound 19] | < 1 µM
COc1ccc2c(c1)-c1c(cnn1CC(=O)NCCN(C)C1CCCC1)CO2 [Compound 20] | 1 to 10 µM
CN(CCNC(=O)Cn1ncc2c(=O)oc3ccccc3c21)C1CCCCC1 [Compound 21] | > 10 µM
CN(CCNC(=O)Cn1ncc2c(=O)oc3ccc(Cl)cc3c21)C1CCCCC1 [Compound 22] | 1 to 10 µM
Cc1cc2c(cc1Cl)-c1c(cnn1CC(=O)NCCN(C)C1CCCCC1)CO2 [Compound 23] | > 10 µM
COc1ccc2c(c1)-c1c(cnn1CC(=O)NCCN(C)C1CCCCCCC1)CO2 [Compound 25] | 1 to 10 µM
COc1ccc2c(c1)-c1c(cnn1CC(=O)NCCN(C)C1CCCCCC1)CO2 [Compound 26] | > 10 µM
COc1ccc2c(c1)-c1c(cnn1C(=O)NCCN1CCC[C@@H]3CCCC[C@@H]31)CO2 [Compound 27] | 1 to 10 µM
COc1ccc2c(c1)-c1c(cnn1CC(=O)NCCN(C)C1CCCCC1)C(OCC(=O)OC(C)(C)C)N2 (stereo not drawn) [Compound 39] | 1 to 10 µM

Results, then the molecule that gave them:

IC50 | Structure (SMILES)
1 to 10 µM | Cc1ccc2c(c1)c1c(cnn1CC(=O)NCCN(C)C1CCCCC1)c(=O)n2C [Compound 8]
< 1 µM | COc1ccc2nc(OC)c3cnn(CC(=O)NCCN(C)C4CCCCC4)c3c2c1 [Compound 9]
1 to 10 µM | COc1ccc2c(c1)c1c(cnn1CC(=O)NCCN(C)C1CCCCC1)c(=O)n2CC(=O)OC(C)(C)C [Compound 12]
1 to 10 µM | COc1ccc2c(c1)c1c(cnn1C(C)C(=O)NCCN(C)C1CCCCC1)c(=O)n2C (stereo not drawn) [Compound 15]
< 1 µM | COc1ccc2c(c1)c1c(cnn1CC(=O)NCCN1CCC3CCCCC3C1)c(=O)n2C (stereo not drawn) [Compound 16]
> 10 µM | COc1ccc2c(c1)c1c(cnn1CC(=O)NCC1CCCN(C3CCCCC3)C1)c(=O)n2C (stereo not drawn) [Compound 17]
> 10 µM | COc1ccc2c(c1)c1c(cnn1CC(=O)NCCN(C)C1CCOCC1)c(=O)n2C [Compound 18]
< 1 µM | COc1ccc2c(c1)c1c(cnn1C(=O)NCCN1CCC[C@@H]3CCCC[C@H]31)c(=O)n2C [Compound 28]
1 to 10 µM | CCN(CCNC(=O)Cn1ncc2c(=O)n(C)c3ccc(OC)cc3c21)C1CCCCC1 [Compound 29]
< 1 µM | CCn1c(=O)c2cnn(CC(=O)NCCN(C)C3CCCCC3)c2c2cc(OC)ccc21 [Compound 33]
< 1 µM | COc1ccc2c(c1)c1c(cnn1CC(=O)NCCN1CC[C@@H]3CCCC[C@H]3C1)c(=O)n2C [Compound 34]
< 1 µM | COc1ccc2c(c1)c1c(cnn1CC(=O)NCCCN(C)C1CCCCC1)c(=O)n2C [Compound 35]
1 to 10 µM | COc1nc2ccc(C)cc2c2c1cnn2CC(=O)NCCN(C)C1CCCCC1 [Compound 36]
< 1 µM | CCN(CCCNC(=O)Cn1ncc2c(=O)n(C)c3ccc(OC)cc3c21)C1CCCCC1 [Compound 37]
1 to 10 µM | COc1ccc2c(c1)c1c(cnn1C(C)C(=O)NCCCN(C)C1CCCCC1)c(=O)n2C (stereo not drawn) [Compound 38]
1 to 10 µM | COc1ccc2c(c1)c1c(cnn1CC(=O)NCCN1CCCC(C)C1)c(=O)n2C (stereo not drawn) [Compound 40]
